Assay results: patent US7183276B2, “Azole compounds” (Takeda Pharmaceutical Company Limited, priority 2002, dated 2007)

First: CSc1ccc(NC(=O)CCc2oc(-n3cnc4ccccc43)nc2-c2ccc(Cl)cc2)cc1 [Example 96, 3-[2-(1H-benzimidazol-1-yl)-4-(4-chlorophenyl)-5-oxazolyl]-N-{4-(methylsulfanyl)phenyl}propionamide]
Second: O=C(CCc1oc(-n2cnc3ccccc32)nc1-c1ccc(Cl)cc1)Nc1ccc(F)cc1 [Example 128, 3-[2-(1H-benzimidazol-1-yl)-4-(4-chlorophenyl)-5-oxazolyl]-N-(4-fluorophenyl)propionamide]
The melting point of the first is higher: 276 to 277 °C for the first, 221 to 222 °C for the second.

First: O=C(CCCc1oc(-n2cnc3ccccc32)nc1-c1ccc(Cl)cc1)Nc1ccc(S(=O)(=O)Nc2nccs2)cc1 [Example 104, 4-[2-(1H-benzimidazol-1-yl)-4-(4-chlorophenyl)-5-oxazolyl]-N-(4-{[(2-thiazolyl)amino]sulfonyl}phenyl)butanamide]
Second: N#Cc1ccc(NC(=O)CCc2oc(-n3cnc4ccccc43)nc2-c2ccc(Cl)cc2)cc1 [Example 112, 3-[2-(1H-benzimidazol-1-yl)-4-(4-chlorophenyl)-5-oxazolyl]-N-(4-cyanophenyl)propionamide]
The melting point of the first is higher: 243 to 244 °C for the first, 216 to 217 °C for the second.

First: N#CCc1ccc(NC(=O)CCc2oc(-c3ccccc3)nc2-c2ccc(Cl)cc2)cc1 [Example 105, 3-[4-(4-chlorophenyl)-2-phenyl-5-oxazolyl]-N-[4-(cyanomethyl)phenyl]propionamide]
Second: Cc1nccn1-c1nc(-c2ccc(Cl)cc2)c(CCC(=O)Nc2ccc(CC#N)cc2)o1 [Example 141, 3-[4-(4-chlorophenyl)-2-(2-methyl-1-imidazolyl)-5-oxazolyl]-N-[4-(cyanomethyl)phenyl]propionamide]
The melting point of the first is higher: 212 to 214 °C for the first, 187 to 188 °C for the second.

First: CCN(CC)C(=O)Cc1ccc(NC(=O)CCc2oc(-n3cnc4ccccc43)nc2-c2ccc(Cl)cc2)cc1 [Example 106, 2-[4-({3-[2-(1H-benzimidazol-1-yl)-4-(4-chlorophenyl)-5-oxazolyl]propanoyl}amino)phenyl]-N,N-diethylacetamide]
Second: CN(C)C(=O)Cc1ccc(NC(=O)CCc2oc(-n3cnc4ccccc43)nc2-c2ccc(Cl)cc2)cc1 [Example 142, 2-[4-({3-[2-(1H-benzimidazol-1-yl)-4-(4-chlorophenyl)-5-oxazolyl]propanoyl}amino)phenyl]-N,N-dimethylacetamide]
The melting point of the first is higher: 209 to 210 °C for the first, 207 to 208 °C for the second.

First: O=C(CCc1oc(-n2cnc3ccccc32)nc1-c1ccc(Cl)cc1)Nc1cccc(CO)c1 [Example 108, 3-[2-(1H-benzimidazol-1-yl)-4-(4-chlorophenyl)-5-oxazolyl]-N-[3-(hydroxymethyl)phenyl]propionamide]
Second: N#CCc1cccc(NC(=O)CCc2oc(-n3cnc4ccccc43)nc2-c2ccc(Cl)cc2)c1 [Example 110, 3-[2-(1H-benzimidazol-1-yl)-4-(4-chlorophenyl)-5-oxazolyl]-N-[3-(cyanomethyl)phenyl]propionamide]
The melting point of the first is higher: 206 to 207 °C for the first, 188 to 189 °C for the second.

First: O=C(CCc1oc(-n2cnc3ccccc32)nc1-c1ccc(Cl)cc1)Nc1ccccc1CO [Example 109, 3-[2-(1H-benzimidazol-1-yl)-4-(4-chlorophenyl)-5-oxazolyl]-N-[2-(hydroxymethyl)phenyl]propionamide]
Second: N#CCc1ccccc1NC(=O)CCc1oc(-n2cnc3ccccc32)nc1-c1ccc(Cl)cc1 [Example 111, 3-[2-(1H-benzimidazol-1-yl)-4-(4-chlorophenyl)-5-oxazolyl]-N-[2-(cyanomethyl)phenyl]propionamide]
The melting point of the first is lower: 159 to 160 °C for the first, 235 to 236 °C for the second.

Compared with `N#Cc1ccccc1NC(=O)CCc1oc(-n2cnc3ccccc32)nc1-c1ccc(Cl)cc1` [Example 113, 3-[2-(1H-benzimidazol-1-yl)-4-(4-chlorophenyl)-5-oxazolyl]-N-(2-cyanophenyl)propionamide], `COc1ccccc1NC(=O)CCc1oc(-n2cnc3ccccc32)nc1-c1ccc(Cl)cc1` [Example 115, 3-[2-(1H-benzimidazol-1-yl)-4-(4-chlorophenyl)-5-oxazolyl]-N-(2-methoxyphenyl)propionamide] is higher in melting point: 186 to 187 °C for the first, 194 to 195 °C for the second.

First: COc1ccc(NC(=O)CCc2oc(-n3cnc4ccccc43)nc2-c2ccc(Cl)cc2)cc1 [Example 114, 3-[2-(1H-benzimidazol-1-yl)-4-(4-chlorophenyl)-5-oxazolyl]-N-(4-methoxyphenyl)propionamide]
Second: O=C(CCc1oc(-n2cnc3ccccc32)nc1-c1ccc(Cl)cc1)Nc1ccc(OC(F)(F)F)cc1 [Example 122, 3-[2-(1H-benzimidazol-1-yl)-4-(4-chlorophenyl)-5-oxazolyl]-N-[4-(trifluoromethoxy)phenyl]propionamide]
The melting point of the first is higher: 240 to 241 °C for the first, 174 to 175 °C for the second.

First: O=C(CCc1oc(-n2cnc3ccccc32)nc1-c1ccc(Cl)cc1)Nc1ccc(C2CCCCC2)cc1 [Example 116, 3-[2-(1H-benzimidazol-1-yl)-4-(4-chlorophenyl)-5-oxazolyl]-N-(4-cyclohexylphenyl)propionamide]
Second: CC(C)c1ccc(NC(=O)CCc2oc(-n3cnc4ccccc43)nc2-c2ccc(Cl)cc2)cc1 [Example 126, 3-[2-(1H-benzimidazol-1-yl)-4-(4-chlorophenyl)-5-oxazolyl]-N-(4-isopropylphenyl)propionamide]
The melting point of the first is lower: 216 to 217 °C for the first, 232 to 233 °C for the second.

First: CC(C)(C)c1ccc(NC(=O)CCc2oc(-n3cnc4ccccc43)nc2-c2ccc(Cl)cc2)cc1 [Example 117, 3-[2-(1H-benzimidazol-1-yl)-4-(4-chlorophenyl)-5-oxazolyl]-N-(4-tert-butylphenyl)propionamide]
Second: O=C(CCc1oc(-n2cnc3ccccc32)nc1-c1ccc(Cl)cc1)Nc1ccc(C(F)(F)F)cc1 [Example 121, 3-[2-(1H-benzimidazol-1-yl)-4-(4-chlorophenyl)-5-oxazolyl]-N-[4-(trifluoromethyl)phenyl]propionamide]
The melting point of the first is lower: 219 to 220 °C for the first, 259 to 263 °C for the second.

Compared with `O=C(CCc1oc(-n2cnc3ccccc32)nc1-c1ccc(Cl)cc1)Nc1ccccc1` [Example 120, 3-[2-(1H-benzimidazol-1-yl)-4-(4-chlorophenyl)-5-oxazolyl]-N-phenylpropionamide], `O=C(CCc1oc(-n2cnc3ccccc32)nc1-c1ccc(Cl)cc1)NCc1ccccc1` [Example 132, 3-[2-(1H-benzimidazol-1-yl)-4-(4-chlorophenyl)-5-oxazolyl]-N-benzylpropionamide] is lower in melting point: 226 to 227 °C for the first, 205 to 206 °C for the second.

First: Cc1ccc(CNC(=O)CCc2oc(-n3cnc4ccccc43)nc2-c2ccc(Cl)cc2)cc1 [Example 125, 3-[2-(1H-benzimidazol-1-yl)-4-(4-chlorophenyl)-5-oxazolyl]-N-(4-methylbenzyl)propionamide]
Second: CN(C)c1ccc(CNC(=O)CCc2oc(-n3cnc4ccccc43)nc2-c2ccc(Cl)cc2)cc1 [Example 135, 3-[2-(1H-benzimidazol-1-yl)-4-(4-chlorophenyl)-5-oxazolyl)-N-[4-(dimethylamino)benzyl]propionamide]
The melting point of the first is higher: 241 to 242 °C for the first, 184 to 185 °C for the second.

First: COc1cc(NC(=O)CCc2oc(-n3cnc4ccccc43)nc2-c2ccc(Cl)cc2)cc(OC)c1OC [Example 127, 3-[2-(1H-benzimidazol-1-yl)-4-(4-chlorophenyl)-5-oxazolyl]-N-(3,4,5-trimethoxyphenyl)propionamide]
Second: COc1ccccc1CNC(=O)CCc1oc(-n2cnc3ccccc32)nc1-c1ccc(Cl)cc1 [Example 133, 3-[2-(1H-benzimidazol-1-yl)-4-(4-chlorophenyl)-5-oxazolyl]-N-(2-methoxybenzyl)propionamide]
The melting point of the first is higher: 228 to 229 °C for the first, 210 to 211 °C for the second.

First: COC(=O)Cc1csc(NC(=O)CCc2oc(-n3cnc4ccccc43)nc2-c2ccc(Cl)cc2)n1 [Example 129, 3-[2-(1H-benzimidazol-1-yl)-4-(4-chlorophenyl)-5-oxazolyl]-N-{4-[(methoxycarbonyl)methyl]-2-thiazolyl}propionamide]
Second: CN(C)c1ccc(NC(=O)CCc2oc(-n3cnc4ccccc43)nc2-c2ccc(Cl)cc2)cc1 [Example 130, 3-[2-(1H-benzimidazol-1-yl)-4-(4-chlorophenyl)-5-oxazolyl]-N-[4-(dimethylamino)phenyl]propionamide]
The melting point of the first is higher: 233 to 234 °C for the first, 212 to 214 °C for the second.

First: O=C(CCc1oc(-n2cnc3ccccc32)nc1-c1ccc(Cl)cc1)NCc1ccccc1Cl [Example 134, 3-[2-(1H-benzimidazol-1-yl)-4-(4-chlorophenyl)-5-oxazolyl]-N-(2-chlorobenzyl)propionamide]
Second: O=C(CCc1oc(-n2cnc3ccccc32)nc1-c1ccc(Cl)cc1)NCc1ccccc1F [Example 137, 3-[2-(1H-benzimidazol-1-yl)-4-(4-chlorophenyl)-5-oxazolyl]-N-(2-fluorobenzyl)propionamide]
The melting point of the first is higher: 222 to 223 °C for the first, 202 to 203 °C for the second.

First: O=C(CCc1oc(-n2cnc3ccccc32)nc1-c1ccc(Cl)cc1)NCCc1ccccc1 [Example 136, 3-[2-(1H-benzimidazol-1-yl)-4-(4-chlorophenyl)-5-oxazolyl]-N-(2-phenylethyl)propionamide]
Second: O=C(CCc1oc(-n2cnc3ccccc32)nc1-c1ccc(Cl)cc1)NCc1ccc(C(F)(F)F)cc1 [Example 138, 3-[2-(1H-benzimidazol-1-yl)-4-(4-chlorophenyl)-5-oxazolyl]-N-[4-(trifluoromethyl)benzyl]propionamide]
The melting point of the first is lower: 164 to 165 °C for the first, 194 to 195 °C for the second.

First: COc1ccccc1NC(=O)Cc1ccc(NC(=O)CCc2oc(-n3cnc4ccccc43)nc2-c2ccc(Cl)cc2)cc1 [Example 139, 2-[4-(N-{3-[2-(1H-benzimidazol-1-yl)-4-(4-chlorophenyl)-5-oxazolyl]propanoyl}amino)phenyl]-N-(2-methoxyphenyl)acetamide]
Second: CN(C)c1ccc(NC(=O)Cc2ccc(NC(=O)CCc3oc(-n4cnc5ccccc54)nc3-c3ccc(Cl)cc3)cc2)cc1 [Example 140, 2-[4-(N-{3-[2-(1H-benzimidazol-1-yl)-4-(4-chlorophenyl)-5-oxazolyl]propanoyl}amino)phenyl]-N-[4-(dimethylamino)phenyl]acetamide]
The melting point of the first is higher: 258 to 259 °C for the first, 169 to 170 °C for the second.
